From patent publication US11512090B2, “Muscarinic acetylcholine M1 receptor antagonists” (PIPELINE THERAPEUTICS, INC., priority 2018, dated 2022) come the findings set out here.

Each structure is given as a SMILES string. Where two headings read alike, the source gives them in different places.

Assay type in all cases: cell-based
The target in assay [1] is T1, human M1 receptor (Homo sapiens, UniProt P11229).
T1 sequence (P11229 1-460): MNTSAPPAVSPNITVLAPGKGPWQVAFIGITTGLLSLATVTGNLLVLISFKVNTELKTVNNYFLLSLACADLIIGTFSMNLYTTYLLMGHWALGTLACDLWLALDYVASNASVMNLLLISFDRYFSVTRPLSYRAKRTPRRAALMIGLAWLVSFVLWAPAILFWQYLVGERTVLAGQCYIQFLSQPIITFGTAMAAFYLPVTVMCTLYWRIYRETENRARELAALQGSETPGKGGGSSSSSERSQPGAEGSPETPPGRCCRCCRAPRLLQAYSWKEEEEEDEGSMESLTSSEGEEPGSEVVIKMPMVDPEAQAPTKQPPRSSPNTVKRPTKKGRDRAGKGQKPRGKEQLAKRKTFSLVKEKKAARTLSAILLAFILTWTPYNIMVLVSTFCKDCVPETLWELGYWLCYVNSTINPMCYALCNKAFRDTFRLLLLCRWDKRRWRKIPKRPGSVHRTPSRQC
Description: In vitro functional assay of muscarinic acetylcholine receptor activity (aequorin calcium flux, antagonist mode vs EC80 acetylcholine), M1. The essentials: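 CHO-K1 cells stably co-expressing human M1 and aequorin were loaded with 5 uM coelenterazine h for 4 h at room temperature in the dark. IC50 came from the drop in luminescence.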
In general terms: Calcium flux is commonly read through the fluorescence of an indicator in the cells.

Assay [2] deals with T2, M2 (Homo sapiens, UniProt P08172).
T2 sequence (P08172 1-466): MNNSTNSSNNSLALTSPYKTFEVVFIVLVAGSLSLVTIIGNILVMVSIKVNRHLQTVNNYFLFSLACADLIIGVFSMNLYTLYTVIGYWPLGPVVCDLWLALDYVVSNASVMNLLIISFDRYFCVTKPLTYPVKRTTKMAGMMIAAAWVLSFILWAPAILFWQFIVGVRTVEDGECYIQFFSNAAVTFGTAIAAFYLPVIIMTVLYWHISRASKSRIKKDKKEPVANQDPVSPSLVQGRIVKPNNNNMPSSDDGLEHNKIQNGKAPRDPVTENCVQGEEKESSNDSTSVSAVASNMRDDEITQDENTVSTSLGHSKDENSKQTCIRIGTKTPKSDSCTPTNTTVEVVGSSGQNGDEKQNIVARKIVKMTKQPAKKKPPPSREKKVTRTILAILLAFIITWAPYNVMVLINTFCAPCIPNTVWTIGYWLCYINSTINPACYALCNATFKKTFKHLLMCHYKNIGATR
Description: In vitro functional assay of muscarinic acetylcholine receptor activity, M2.

Assay [3] deals with M3 (Homo sapiens, UniProt P20309). Description: In vitro functional assay of muscarinic acetylcholine receptor activity, M3.
[4] abbreviates: CHO-K1 cells stably expressing human M1 receptor with Aequorin, decrease in EC80 acetylcholine response, read-out: M1 IC50.
The mark [5] stands for this setting: antagonist IC50 at M2, read-out: M2 IC50.
The mark [6] stands for this setting: antagonist IC50 at M3, read-out: M3 IC50.

One may read the IC50 as the midpoint of a concentration-inhibition curve.

M3, sequence (P20309 whole entry): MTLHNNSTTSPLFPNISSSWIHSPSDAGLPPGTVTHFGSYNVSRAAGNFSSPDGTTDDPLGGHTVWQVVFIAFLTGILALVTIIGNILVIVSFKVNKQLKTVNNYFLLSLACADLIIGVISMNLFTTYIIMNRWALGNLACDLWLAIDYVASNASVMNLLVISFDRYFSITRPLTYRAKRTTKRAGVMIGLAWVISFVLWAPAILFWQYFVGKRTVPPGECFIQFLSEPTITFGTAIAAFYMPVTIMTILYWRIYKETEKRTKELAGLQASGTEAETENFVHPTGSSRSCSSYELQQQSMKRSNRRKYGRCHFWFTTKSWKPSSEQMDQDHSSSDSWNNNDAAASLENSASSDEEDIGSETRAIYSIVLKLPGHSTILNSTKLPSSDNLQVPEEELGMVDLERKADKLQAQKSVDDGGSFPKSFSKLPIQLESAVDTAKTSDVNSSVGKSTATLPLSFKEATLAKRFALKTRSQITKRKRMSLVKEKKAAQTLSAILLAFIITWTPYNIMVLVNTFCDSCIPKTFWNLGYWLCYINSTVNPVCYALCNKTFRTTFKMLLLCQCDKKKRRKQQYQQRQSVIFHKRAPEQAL

For the compound `O=C(CCS(=O)(=O)c1cccc2ncsc12)N1CCN(c2ccc(Cl)cn2)CC1` [Example 110, 3-(benzo[d]thiazol-7-ylsulfonyl)-1-(4-(5-chloropyridin-2-yl)piperazin-1-yl)propan-1-one], the 50% inhibitory concentration (IC50) in assay [1] (setting [4]) was 0.1 to 1 µM; in assay [2] (setting [5]) it was more than 10 µM; in assay [3] (setting [6]), 1 to 10 µM.
The matching figures for `N#Cc1ccc(N2CCN(C(=O)CCS(=O)(=O)c3cccc4ncsc34)CC2)nc1` [Example 111, 6-(4-(3-(benzo[d]thiazol-7-ylsulfonyl)propanoyl)piperazin-1-yl)nicotinonitrile]: less than 0.1 µM, 1 to 10 µM and 1 to 10 µM.
On the same counts, the results for `O=C(CCS(=O)(=O)c1cccc2ncsc12)N1CCN(c2ncc(C(F)(F)F)cn2)CC1` [Example 112, 3-(benzo[d]thiazol-7-ylsulfonyl)-1-(4-(5-(trifluoromethyl)pyrimidin-2-yl)piperazin-1-yl)propan-1-one] are 1 to 10 µM, more than 10 µM and 1 to 10 µM.
On the same counts, the results for `C[C@H]1CN(c2ccn3nccc3c2)CCN1C(=O)CCS(=O)(=O)c1cccc2ncsc12` [Example 113, (S)-3-(benzo[d]thiazol-7-ylsulfonyl)-1-(2-methyl-4-(pyrazolo[1,5-a]pyridin-5-yl)piperazin-1-yl)propan-1-one] are 1 to 10 µM, 1 to 10 µM and more than 10 µM.
On to `C[C@H]1CN(c2ccc(C#N)nc2)CCN1C(=O)CCS(=O)(=O)c1cccc2ncsc12` [Example 114, (S)-5-(4-(3-(benzo[d]thiazol-7-ylsulfonyl)propanoyl)-3-methylpiperazin-1-yl)picolinonitrile], for which the half-inhibitory concentration (IC50) in assay [1] (setting [4]) was 0.1 to 1 µM; in assay [2] (setting [5]), 1 to 10 µM; in assay [3] (setting [6]), 1 to 10 µM.
As for `C[C@H]1CN(c2cnc(C(F)(F)F)nc2)CCN1C(=O)CCS(=O)(=O)c1cccc2ncsc12` [Example 115, (S)-3-(benzo[d]thiazol-7-ylsulfonyl)-1-(2-methyl-4-(2-(trifluoromethyl)pyrimidin-5-yl)piperazin-1-yl)propan-1-one], the figures for the IC50 in assay [1] (setting [4]), in assay [2] (setting [5]) and in assay [3] (setting [6]) were more than 10 µM, more than 10 µM and 1 to 10 µM, respectively.
For `C[C@H]1CN(c2cc(F)c(F)c(F)c2)CCN1C(=O)CCS(=O)(=O)c1cccc2ncsc12` [Example 116, (S)-3-(benzo[d]thiazol-7-ylsulfonyl)-1-(2-methyl-4-(3,4,5-trifluorophenyl)piperazin-1-yl)propan-1-one], the IC50 in assay [1] (setting [4]), in assay [2] (setting [5]) and in assay [3] (setting [6]) was 1 to 10 µM throughout.
With `C[C@H]1CN(c2cc[nH]c(=O)c2)CCN1C(=O)CCS(=O)(=O)c1cccc2ncsc12` [Example 117, (S)-4-(4-(3-(benzo[d]thiazol-7-ylsulfonyl)propanoyl)-3-methylpiperazin-1-yl)pyridin-2(1H)-one], the IC50 in assay [1] (setting [4]) is 1 to 10 µM; in assay [2] (setting [5]), more than 10 µM; in assay [3] (setting [6]), more than 10 µM.
For `O=C(CNCCc1cccn2nccc12)N1C[C@H]2CC[C@@H](C1)N2c1ccncc1F` [Example 118, 1-((1R,5S)-8-(3-fluoropyridin-4-yl)-3,8-diazabicyclo[3.2.1]octan-3-yl)-2-((2-(pyrazolo[1,5-a]pyridin-4-yl)ethyl)amino)ethan-1-one], the half-maximal inhibitory concentration (IC50) in assay [1] (setting [4]) is 1 to 10 µM; in assay [2] (setting [5]), more than 10 µM; in assay [3] (setting [6]), more than 10 µM.
With `C[C@H]1CN(c2ccc(C#N)cn2)CCN1C(=O)CCS(=O)(=O)c1cccc2ncsc12` [Example 120, 6-[(3S)-4-[3-(1,3-benzothiazole-7-sulfonyl)propanoyl]-3-methylpiperazin-1-yl]pyridine-3-carbonitrile], the IC50 in assay [1] (setting [4]) lay within 0.1 to 1 µM; in assay [2] (setting [5]), 1 to 10 µM; in assay [3] (setting [6]), 1 to 10 µM.
As for `O=C(CCS(=O)(=O)c1c(F)ccc2nccn12)N1CC2CCC(C1)N2c1ccc(F)cn1` [Example 121, 3-({6-fluoroimidazo[1,2-a]pyridin-5-yl}sulfonyl)-1-[8-(5-fluoropyridin-2-yl)-3,8-diazabicyclo[3.2.1]octan-3-yl]propan-1-one], the results for the 50% inhibitory concentration (IC50) in assay [1], in assay [2] (setting [5]) and in assay [3] (setting [6]) were less than 0.1 µM, 0.1 to 1 µM and less than 0.1 µM, respectively.
As to `N#Cc1cc(N2C3CCC2CN(C(=O)CCS(=O)(=O)c2cccc4ncsc24)C3)ccc1F` [Example 122, 5-{3-[3-(1,3-benzothiazole-7-sulfonyl)propanoyl]-3,8-diazabicyclo[3.2.1]octan-8-yl}-2-fluorobenzonitrile], the 50% inhibitory concentration (IC50) in assay [1] is less than 0.1 µM; in assay [2] (setting [5]), more than 10 µM; in assay [3], less than 0.1 µM.
With `Cc1cc(Cl)cnc1N1CCN(C(=O)CCNCc2cccc3nccn23)[C@H](C)C1` [Example 123, 1-[(2R)-4-(5-chloro-3-methylpyridin-2-yl)-2-methylpiperazin-1-yl]-3-[({imidazo[1,2-a]pyridin-5-yl}methyl)amino]propan-1-one], the 50% inhibitory concentration (IC50) in assay [1] (setting [4]) was 1 to 10 µM; in assay [2] (setting [5]), more than 10 µM; in assay [3] (setting [6]), 1 to 10 µM.
With `Cc1cc(C#N)cnc1N1CCN(C(=O)CCS(=O)(=O)c2cccc3ncsc23)[C@@H](C)C1` [Example 124, 6-[(3S)-4-[3-(1,3-benzothiazole-7-sulfonyl)propanoyl]-3-methylpiperazin-1-yl]-5-methylpyridine-3-carbonitrile], the results for the IC50 in assay [1] (setting [4]), in assay [2] (setting [5]) and in assay [3] (setting [6]) were less than 0.1 µM, 0.1 to 1 µM and 0.1 to 1 µM, respectively.
Regarding `N#Cc1ccc(N2CC3CCC2CN3C(=O)CCS(=O)(=O)c2cccc3ncsc23)nc1` (stereo not drawn) [Example 125, 6-{5-[3-(1,3-benzothiazole-7-sulfonyl)propanoyl]-2,5-diazabicyclo[2.2.2]octan-2-yl}pyridine-3-carbonitrile], the half-maximal inhibitory concentration (IC50) in assay [1] (setting [4]) is less than 0.1 µM; in assay [2] (setting [5]), 0.1 to 1 µM; in assay [3] (setting [6]), 0.1 to 1 µM.
For `CC1CN(c2ccc(C#N)cn2)[C@H](C)CN1C(=O)CCS(=O)(=O)c1cccc2ncsc12` (stereo partly drawn) [Example 126, 6-[(2R)-4-[3-(1,3-benzothiazole-7-sulfonyl)propanoyl]-2,5-dimethylpiperazin-1-yl]pyridine-3-carbonitrile], the IC50 is 0.1 to 1 µM in assay [1] (setting [4]), more than 10 µM in assay [2] (setting [5]) and more than 10 µM in assay [3] (setting [6]).
As for `Cc1cc(F)cnc1N1CC(C)N(C(=O)CCS(=O)(=O)c2cccc3ncsc23)C[C@H]1C` (stereo partly drawn) [Example 127, 3-(1,3-benzothiazole-7-sulfonyl)-1-[(5R)-4-(5-fluoro-3-methylpyridin-2-yl)-2,5-dimethylpiperazin-1-yl]propan-1-one], the half-inhibitory concentration (IC50) was less than 0.1 µM in assay [1] (setting [4]), 0.1 to 1 µM in assay [2] (setting [5]) and 1 to 10 µM in assay [3] (setting [6]).
The matching figures for `N#Cc1ccc(N2CCN(C(=O)CCCc3cccc4ncoc34)CC2)nc1` [Example 129, 6-{4-[4-(1,3-benzoxazol-7-yl)butanoyl)piperazin-1-yl}pyridine-3-carbonitrile]: 0.1 to 1 µM, 1 to 10 µM and more than 10 µM.
On to `N#Cc1cc(N2C3CCC2CN(C(=O)CCS(=O)(=O)c2cccc4nccn24)C3)ccc1F` [Example 130, 2-fluoro-5-[3-(3-{imidazo[1,2-a]pyridine-5-sulfonyl}propanoyl)-3,8-diazabicyclo[3.2.1]octan-8-yl)benzonitrile], for which the results for the 50% inhibitory concentration (IC50) in assay [1], in assay [2] (setting [5]) and in assay [3] (setting [6]) were less than 0.1 µM, 1 to 10 µM and more than 10 µM, respectively.
On the same counts, the results for `N#Cc1cc(N2C3CCC2CN(C(=O)CCNCc2c(F)ccc4nccn24)C3)ccc1F` [Example 131, 2-fluoro-5-(3-{3-[({6-fluoroimidazo[1,2-a]pyridin-5-yl}methyl)amino]propanoyl}-3,8-diazabicyclo[3.2.1]octan-8-yl)benzonitrile] are 0.1 to 1 µM, more than 10 µM and more than 10 µM.
Regarding `N#Cc1ccc(N2CC3CCC(C2)N3C(=O)CCS(=O)(=O)c2cccc3ncsc23)nc1` [Example 132, 6-{8-{3-(1,3-benzothiazole-7-sulfonyl)propanoyl]-3,8-diazabicyclo[3.2.1]octan-3-yl}pyridine-3-carbonitrile], the half-maximal inhibitory concentration (IC50) is less than 0.1 µM in assay [1], 0.1 to 1 µM in assay [2] and 1 to 10 µM in assay [3] (setting [6]).
The matching figures for `N#Cc1ccc(N2C3COCC2CN(C(=O)CCS(=O)(=O)c2cccc4ncsc24)C3)nc1` [Example 133, 6-{7-[3-(1,3-benzothiazole-7-sulfonyl)propanoyl]-3-oxa-7,9-diazabicyclo[3.3.1]nonan-9-yl}pyridine-3-carbonitrile]: less than 0.1 µM, 0.1 to 1 µM and more than 10 µM.
